In patent US6020342A, “Fused imidazo[1,2-A]pyridines” (Shinnippon Pharmaceutical, Inc., priority 1995, dated 2000):

Each compound was assayed against T1, H^+ /K^+ -ATPase (Sus scrofa, UniProt P19156) (assay: Inhibitory Action on H^+ /K^+ -ATPase Activity). Details: microsome fraction from porcine gastric mucosa, pH7.4, 37° C., 30 min preincubation, 15 min reaction.
T1 construct: a microsome fraction prepared from porcine gastric mucosa was used as a standard enzyme; from tissue; host or cells: porcine gastric mucosa, microsome fraction
Format: biochemical
Procedure: Inhibitory Action on H^+ /K^+ -ATPase Activity
According to the method of Hongo et al. [The Japanese Journal of Pharmacology, 52, p295, (1990)], a microsome fraction prepared from porcine gastric mucosa was used as a standard enzyme. The standard enzyme (10-20lig protein) and the test compound (0.1-100 μM) dissolved in dimethylsulfoxide was incubated at 37° C. for 30 minutes in the 50 mM Tris-acetate buffer (pH7.4, containing 2 mM magnesium chloride, 5 mM potassium chloride). The enzyme reaction was started by adding adenosinetriphosphate (ATP). Tris at the final concentration of 2 mM, and the reaction was kept at 37° C. for 15 minutes. The reaction was stopped by adding chilled 10% trichloroacetic acid. Inorganic phosphate released during the reaction was calorimetrically determined according to the method of Fiske-Subbarow [The Journal of Biological Chemistry, 66, p375, (1925)]. H^+ /K^+ -ATPase activity was determined by the difference of the enzyme activities under the conditions with or without potassium chloride. The inhibitory activities of test compounds were determined as the 50% inhibitory concentration (IC50 value) from reaction-concentration curve, and the results are shown in Table 3.

T1 sequence (P19156 2-1034 limits assumed): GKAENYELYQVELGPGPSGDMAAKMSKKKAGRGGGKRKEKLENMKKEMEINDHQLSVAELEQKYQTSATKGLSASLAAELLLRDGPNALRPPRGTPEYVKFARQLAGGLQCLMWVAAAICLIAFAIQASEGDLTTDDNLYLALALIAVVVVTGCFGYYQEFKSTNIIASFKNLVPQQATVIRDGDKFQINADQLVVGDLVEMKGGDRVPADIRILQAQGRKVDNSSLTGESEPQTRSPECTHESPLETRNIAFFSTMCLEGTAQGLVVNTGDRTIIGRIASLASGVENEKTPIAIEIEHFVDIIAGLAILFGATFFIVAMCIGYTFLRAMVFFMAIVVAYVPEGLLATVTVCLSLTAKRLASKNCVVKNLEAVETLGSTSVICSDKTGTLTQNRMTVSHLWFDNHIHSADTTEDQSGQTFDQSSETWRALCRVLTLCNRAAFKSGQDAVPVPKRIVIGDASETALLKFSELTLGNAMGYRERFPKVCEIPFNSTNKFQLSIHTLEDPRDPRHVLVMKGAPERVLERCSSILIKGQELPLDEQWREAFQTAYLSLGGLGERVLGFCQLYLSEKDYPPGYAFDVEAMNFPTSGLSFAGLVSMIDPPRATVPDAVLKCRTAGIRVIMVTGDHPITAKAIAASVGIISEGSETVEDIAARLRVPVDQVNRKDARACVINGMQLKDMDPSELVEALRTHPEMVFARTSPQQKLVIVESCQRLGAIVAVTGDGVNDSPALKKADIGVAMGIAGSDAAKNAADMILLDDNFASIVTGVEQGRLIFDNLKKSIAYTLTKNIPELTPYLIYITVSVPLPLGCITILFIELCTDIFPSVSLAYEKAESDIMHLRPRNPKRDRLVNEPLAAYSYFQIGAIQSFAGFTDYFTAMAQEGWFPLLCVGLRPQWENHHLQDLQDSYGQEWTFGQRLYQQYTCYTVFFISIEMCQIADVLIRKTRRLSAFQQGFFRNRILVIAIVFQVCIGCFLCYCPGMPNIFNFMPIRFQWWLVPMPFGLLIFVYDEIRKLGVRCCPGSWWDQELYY
T1 sequence (P18434 whole entry partner): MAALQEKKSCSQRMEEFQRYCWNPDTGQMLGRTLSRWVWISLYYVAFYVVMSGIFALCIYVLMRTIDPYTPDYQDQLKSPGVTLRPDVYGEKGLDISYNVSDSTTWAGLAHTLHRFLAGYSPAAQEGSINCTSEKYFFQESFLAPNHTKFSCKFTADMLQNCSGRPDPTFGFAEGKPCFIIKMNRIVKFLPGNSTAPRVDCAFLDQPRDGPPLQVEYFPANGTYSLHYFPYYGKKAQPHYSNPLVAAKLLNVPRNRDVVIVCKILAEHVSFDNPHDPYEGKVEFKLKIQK

Structure (SMILES) | IC50 [µM]
COc1ccc(-c2cn3c(N)c(-c4ccccc4C)nc3c3ccccc23)cc1 [Compound 21, 3-Amino-6-(4-methoxyphenyl)-2-(2-methylphenyl)imidazo[2,1-a]isoquinoline] | 7.4
Cc1ccccc1-c1nc2c3cc(O)ccc3ccn2c1N [Compound 22, 3-Amino-9-hydroxy-2-(2-methylphenyl)imidazo[2,1-a]isoquinoline] | 1.9
Cc1ccccc1-c1nc2c3ccccc3c(OCc3ccccc3)cn2c1N [Compound 38, 3-Amino-6-benzyloxy-2-(2-methylphenyl)imidazo[2,1-a]isoquinoline] | 4.8
Cc1cc(-c2nc3c4ccccc4ccn3c2N)c(C)s1 [Compound 83, 3-Amino-2-(2,5-dimethyl-3-thienyl)imidazo[2,1-a]isoquinoline] | 5.6
Cc1ccccc1-c1nc2n(c1N)C(C)(C)Cc1ccccc1-2 [Compound 104, 3-Amino-5,5-dimethyl-2-(2-methylphenyl)-5,6-dihydroimidazo[2,1-a]isoquinoline] | 12
Cc1cc(O)ccc1-c1nc2n(c1N)CCc1ccccc1-2 [Compound 107, 3-Amino-2-(4-hydroxy-2-methylphenyl)-5,6-dihydroimidazo[2,1-a]isoquinoline] | 33
CC(=O)N(Cc1ccc(C)cc1)c1c(-c2ccccc2C)nc2c3ccccc3ccn12 [Compound 151, 3-[N-Acetyl-N-(4-methylbenzyl)amino]-2-(2-methylphenyl)imidazo[2,1-a]isoquinoline] | 7.8
Cc1ccccc1-c1nc2c3ccccc3ccn2c1NC(C)c1ccccc1 (stereo not shown) [Compound 192, 2-(2-Methylphenyl)-3-[(1-phenylethyl)amino]imidazo[2,1-a]isoquinoline] | 4.4
CCN(CCCl)c1c(-c2ccccc2C)nc2c3ccccc3ccn12 [Compound 202, 3-[N-(2-Chloroethyl)-N-ethylamino]-2-(2-methylphenyl)imidazo[2,1-a]isoquinoline] | 9.8
CCCN(CC)c1c(-c2ccccc2F)nc2c3ccccc3ccn12 [Compound 206, 3-(N-Ethyl-N-propylamino)-2-(2-fluorophenyl)imidazo[2,1-a]isoquinoline] | 2.3
CCCN(CC)c1c(-c2cccc(C)c2)nc2c3ccccc3ccn12 [Compound 211, 3-(N-Ethyl-N-propylamino)-2-(3-methylphenyl)imidazo[2,1-a]isoquinoline] | 2.4

Other lines, results leading:

IC50 [µM] | Structure (SMILES)
3.7 | Cc1ccccc1-c1nc2c3ccccc3c(CCC(C)C)cn2c1N [Compound 15, 3-Amino-6-isopentyl-2-(2-methylphenyl)imidazo[2,1-a]isoquinoline]
1 | CCN(CC)c1cccc2c1ccn1c(N)c(-c3ccccc3C)nc21 [Compound 54, 3-Amino-7-diethylamino-2-(2-methylphenyl)imidazo[2,1-a]isoquinoline]
4.6 | CCCc1cccc2c1ccn1c(NCC)c(-c3ccccc3C)nc21 [Compound 163, 3-Ethylamino-2-(2-methylphenyl)-7-propylimidazo[2,1-a]isoquinoline]
5.8 | CCNc1c(-c2ccccc2C)nc2c3cccc(OCc4ccccc4)c3ccn12 [Compound 169, 7-Benzyloxy-3-ethylamino-2-(2-methylphenyl)imidazo[2,1-a]isoquinoline]
6.8 | Cc1ccc(-c2nc3c4ccccc4ccn3c2NCCC(C)C)c(C)c1 [Compound 189, 3-Isopentylamino-2-(2,4-dimethylphenyl)imidazo[2,1-a]isoquinoline]
5.2 | CCCCCCNc1c(-c2ccccc2C)nc2c3ccccc3ccn12 [Compound 191, 3-Hexylamino-2-(2-methylphenyl)imidazo[2,1-a]isoquinoline]
8.8 | Cc1ccccc1-c1nc2c3ccccc3ccn2c1NCc1ccc2ccccc2c1Br [Compound 195]
1.2 | CCN(CC)c1c(-c2ccccc2C)nc2c3cccc(Br)c3ccn12 [Compound 200, 7-Bromo-3-diethylamino-2-(2-methylphenyl)imidazo[2,1-a]isoquinoline]
